Data: patent US20050014689A1, “Remedies for life style-related diseases or cibophobia and method of screening the same” (priority 2001, published 2005)

System: clone 901 mRNA
Test: Effect of intracerebroventricular antisense DNA administration on food consumption of normal and obese mice
Assay type: in vivo
Conditions: 30 μg/mouse into lateral ventricle
Excerpt: reagent: clone 901 antisense DNA was a mixture of two kinds of 25mer antisense DNAs relative to the vicinity of the gene initiation codon and synthesis, thiolation and HPLC purification were committed to Nihon Bio Service Co., Ltd.
Test animal: male C57BL/6N (hereinafter normal mouse) and C57BL db/db (hereinafter obese mouse) (SPF grade) were purchased from Charles River, Japan, Inc. and CLEA JAPAN, INC., respectively, and after preliminary breeding, normal mice were used for the test at the age of 9 weeks and the obese mice were used for the test at the age of 11 weeks.
Breeding environment: The mice were bred in a room controlled to a temperature of not lower than 20° C. and not higher than 26° C., relative humidity of not less than 30% and not more than 70%, lighting cycle of 8:00-20:00 lighting and 20:00-8:00 lights-out. During breeding, the mice were allowed a free access to a solid feed (CE-2, CLEA JAPAN) and sterile distilled water.
As an antisense DNA administration liquid, an artificial cerebrospinal fluid (0.166 g/L CaCl2, 7.014 g/L NaCl, 0.298 g/L KCl, 0.203 g/L MgCl2.6H2O, 2.10 g/L NaHCO3) containing 7.5 μg/μl of antisense DNA was prepared. In addition, an artificial cerebrospinal fluid free of antisense DNA was used as a solvent control liquid.
The normal mice and obese mice were divided into two groups each, and after fasting overnight, an antisense DNA was administered at 4 μl/mouse (30 μg/mouse in the amount of antisense DNA) to one group and a solvent control liquid (4 μl/mouse) was administered into the lateral ventricle of the other group, simultaneously with the lighting at 8:00 a.m.
Feeding of mice was resumed immediately after administration, and food consumption was calculated at 12 hours after administration. […] The food consumption from 12 hr to 24 hr after administration was calculated. […] In the normal mice, no effect of antisense DNA of clone 901 was found.

antisense DNA of clone 901: mixture of two thiolated 25mer antisense DNAs (SEQ ID No 3 and No 4) to the vicinity of the clone 901 initiation codon (antisense 1 GCTTCGCAGCGCTCGCTGGGCGGCG; antisense 2 AGTGGGCCACAGCTCCACATGGCAG; DNA, all phosphorothioate, methylation of C not given here)
effect on food consumption (normal mice (C57BL/6N), 12 hr to 24 hr after administration): no effect
effect on food consumption (normal mice (C57BL/6N), immediately after administration to 12 hours): food consumption-decreasing effect
effect on food consumption (obese mice (C57BL db/db), 12 hr to 24 hr after administration): suppressed to the same level with the normal mice
effect on food consumption (obese mice (C57BL db/db), immediately after administration to 12 hours): food consumption-decreasing effect
